In PMC8344243, “Design, synthesis, docking, ADMET studies, and anticancer evaluation of new 3-methylquinoxaline derivatives as VEGFR-2 inhibitors and apoptosis inducers” (Journal of Enzyme Inhibition and Medicinal Chemistry, 2021):
Values joined by “and” are separate entries in the source; they are usually repeats but may differ in a detail not shown here. Identical values can stand only once. Like-named read-outs stand apart in the source and are kept apart here. Values belong to the molecule of their own block, whether it stands above or below them.

Tests used:
HepG2 [1] = test system: HepG2; parameters: method as in PMID 33721808, PMID 34023640; details: lead compounds of previous work ref 63, 64, read-out: Cytotoxicity on cancer cells IC50, HepG2; cited from earlier work
MCF-7 [2] = test system: MCF-7; parameters: method as in PMID 33721808, PMID 34023640; details: lead compounds of previous work ref 63, 64, read-out: Cytotoxicity on cancer cells IC50, MCF-7; cited from earlier work
human VEGFR-2 [3] = biological target: T1, human VEGFR-2 (Homo sapiens, UniProt P35968); parameters: method as in PMID 33721808, PMID 34023640; details: lead compounds of previous work ref 63, 64; cited from earlier work
T1 construct: endogenous in cells; host or cells: HepG2

HepG2 [4] = assay: MTT anti-proliferative assay, HepG2; format: cell-based; details: Homo sapiens, read-out: Cytotoxicity on cancer cells IC50, HepG2
Procedure: (§1) In vitro cytotoxic activities of the synthesised compounds were evaluated against two different cancer cell lines; breast cancer (MCF-7) and hepatocellular carcinoma (HepG2) using standard MTT colorimetric assay as described by Mosmann[78]^,[79]. […].
(§2) The in vitro antiproliferative activities were assessed using the MTT assay protocol[78]^,[79]^,[95]. As shown in Supplementary Data.

BAX = BAX expression level in HepG2 cells (Western blot); format: cell-based
Procedure: (§3) In this study, BAX and Bcl-2 expression levels in the HepG2 cell line after the treatment with compound 27a were determined by quantitative Western blotting. […] Also, it decreased the Bcl-2 level by 2-fold less than the control cells. In addition, the BAX/Bcl-2 ratio was increased 5-fold in the treated cells compared to the control cell (Table 4 and Figure 6). Meanwhile, compound 27a increased BAX/Bcl-2 ratio, it could trigger apoptosis in the experienced cells[90]^,[91].

primary rat hepatocytes = assay: Cytotoxicity against primary rat hepatocytes (normal hepatic cells); format: cell-based; details: HepG2 vs primary rat hepatocytes
Source text: (§4) It is of high importance for anticancer agents to have minimum side effects on normal cells. […].

[5] = as above; format: cell-based; details: rat, primary rat hepatocytes
Source text: as §4

human VEGFR-2 [6] = biological target: T1, human VEGFR-2; assay: In vitro VEGFR-2 enzyme inhibition assay (ELISA kit, HepG2 cell line); format: biochemical; details: human VEGFR-2 in HepG2 cell line
Source text: The synthesised compounds were estimated for their in vitro inhibition on human VEGFR-2 in HepG2 cell line; using ELISA kit[96] as described in Supplementary Data.

MCF-7 [7] = assay: MTT anti-proliferative assay, MCF-7; format: cell-based; details: for IC50: Homo sapiens, MCF7, MCF-7, MTT assay, read-out: Cytotoxicity on cancer cells IC50, MCF-7
Procedure: as §1, §2

caspase-3 = assay: Active caspase-3 level in HepG2 cells (Western blot); format: cell-based; details: 4.5 µM, 24 h
Bcl-2 = Bcl-2 expression level in HepG2 cells (Western blot); format: cell-based
Procedure: as §3

caspase-9 = assay: Active caspase-9 level in HepG2 cells (Western blot); format: cell-based; details: 4.5 µM, 24 h
HepG2 cells [8] = assay: Annexin V and PI double staining apoptosis assay; format: cell-based; details: 4.5 µM, 24 h
Procedure: As compound 27a produced a high accumulation of HepG2 cells at the G2/M phase, such compound was further investigated for its apoptotic effect using Annexin V and PI double staining assay. In such a procedure, HepG2 cells were treated with compound 27a at a concentration of 4.5 µM and incubated for 24 h.
Apoptosis analysis for compound 27a in HepG2 cells was carried out using Annexin V-FITC as shown in Supplementary Data[30]^,[86].

HepG2 cells [9] = assay: Flow cytometry cell cycle analysis; format: cell-based; details: 4.5 µM, 24 h
Procedure: The cell cycle parameters of the incubated cells were compared with untreated control cells (Table 2 and Figure 4).

BAX/Bcl-2 ratio = BAX/Bcl-2 ratio in HepG2 cells (Western blot); format: cell-based
Procedure: as §3

T1 sequence (P35968 20-1356): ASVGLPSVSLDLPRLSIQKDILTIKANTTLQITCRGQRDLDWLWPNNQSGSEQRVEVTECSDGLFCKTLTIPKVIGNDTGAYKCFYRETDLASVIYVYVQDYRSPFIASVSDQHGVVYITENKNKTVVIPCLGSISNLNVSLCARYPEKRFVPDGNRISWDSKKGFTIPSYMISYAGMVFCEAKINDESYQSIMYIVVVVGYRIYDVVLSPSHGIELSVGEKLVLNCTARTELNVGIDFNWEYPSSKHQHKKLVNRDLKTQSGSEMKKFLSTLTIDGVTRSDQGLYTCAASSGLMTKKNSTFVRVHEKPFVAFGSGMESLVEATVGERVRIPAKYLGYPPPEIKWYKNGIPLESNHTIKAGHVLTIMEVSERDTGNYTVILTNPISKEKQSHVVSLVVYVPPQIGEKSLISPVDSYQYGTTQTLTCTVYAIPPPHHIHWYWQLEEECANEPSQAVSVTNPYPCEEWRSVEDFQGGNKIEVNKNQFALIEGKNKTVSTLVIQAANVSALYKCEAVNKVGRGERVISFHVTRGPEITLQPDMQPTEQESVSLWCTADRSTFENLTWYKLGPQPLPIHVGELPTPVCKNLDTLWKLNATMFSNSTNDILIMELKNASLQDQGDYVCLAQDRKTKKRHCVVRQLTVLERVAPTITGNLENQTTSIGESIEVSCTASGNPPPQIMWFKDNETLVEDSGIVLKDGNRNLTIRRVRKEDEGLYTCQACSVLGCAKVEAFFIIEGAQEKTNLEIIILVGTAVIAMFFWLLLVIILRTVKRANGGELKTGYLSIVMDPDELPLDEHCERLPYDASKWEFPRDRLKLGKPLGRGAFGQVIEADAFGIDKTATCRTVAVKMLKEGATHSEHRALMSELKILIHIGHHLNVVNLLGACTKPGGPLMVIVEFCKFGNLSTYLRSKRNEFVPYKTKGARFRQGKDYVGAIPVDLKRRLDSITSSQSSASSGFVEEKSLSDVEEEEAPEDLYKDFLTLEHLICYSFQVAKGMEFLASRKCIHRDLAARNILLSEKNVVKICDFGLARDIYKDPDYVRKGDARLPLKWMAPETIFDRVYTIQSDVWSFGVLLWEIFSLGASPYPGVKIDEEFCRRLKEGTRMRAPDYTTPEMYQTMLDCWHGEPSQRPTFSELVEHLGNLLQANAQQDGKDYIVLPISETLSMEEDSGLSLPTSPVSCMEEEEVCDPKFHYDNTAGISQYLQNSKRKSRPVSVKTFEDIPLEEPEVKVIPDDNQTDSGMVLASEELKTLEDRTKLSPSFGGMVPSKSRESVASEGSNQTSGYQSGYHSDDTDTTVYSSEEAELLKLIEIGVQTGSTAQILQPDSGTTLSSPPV

Structure (SMILES): O=C(Cn1c(=O)c2nncn2c2ccccc21)Nc1ccc(C(=O)Nc2ccc(Cl)cc2)cc1 [Compound 7]
- IC50 (HepG2 [1]): 4.1 µM
- IC50 (MCF-7 [2]): 7.2 µM

Structure (SMILES): COc1ccc(NC(=O)c2ccc(NC(=O)CSc3nnc4c5nncn5c5ccccc5n34)cc2)cc1 [Compound 8]
- IC50 (HepG2 [1]): 3.3 µM
- IC50 (MCF-7 [2]): 4.4 µM
- IC50 (human VEGFR-2 [3]): 0.0032 µM

Structure (SMILES): Cc1nc2ccccc2n(CC(=O)Nc2ccc(C(=O)NC(C)(C)C)cc2)c1=O [Compound 27a, N-(tert-butyl)-4-(2-(3-methyl-2-oxoquinoxalin-1(2H)-yl)acetamido)benzamide]
- IC50 (HepG2 [4]): 4.5 µM
- Increase in the BAX level compared to control cells (BAX): 2.6 fold
- Protein expression (normalised to β-actin), BAX (BAX; 24 h, control = 1.00): 2.60 ± 0.20
- Cytotoxic activity against cancer HepG2 cell line more than against normal hepatic cells (primary rat hepatocytes): 4.5 fold
- IC50 [5]: 19.9 µM
- IC50 (human VEGFR-2 [6]): 0.0032 µM
- IC50 (MCF-7 [7]): 7.7 µM
- Increase in the level of caspase-3 compared to control cells (caspase-3): 2.5 fold
- Protein expression (normalised to β-actin), Caspases-3 (caspase-3; control = 1.00): 2.51 ± 0.27
- Decrease in the Bcl-2 level compared to control cells (Bcl-2): 2 fold
- Protein expression (normalised to β-actin), Bcl-2 (Bcl-2; 24 h, control = 1.00): 0.52 ± 0.02
- Increase in the level of caspase-9 compared to control cells (caspase-9): 3.43 fold
- Protein expression (normalised to β-actin), Caspases-9 (caspase-9; control = 1.00): 3.43 ± 0.49
- Apoptosis, Early (right bottom) (HepG2 cells [8]): 40.47% and 40.47 ± 2.55 %
- Apoptosis, Late (right top) (HepG2 cells [8]): 0.35% and 0.35 ± 0.06%
- Increase of apoptosis compared to untreated cells (HepG2 cells [8]): about five times
- Necrosis (left top) (HepG2 cells [8]): 0.20 ± 0.04
- Viable (left bottom) (HepG2 cells [8]): 58.98 ± 2.64
- Accumulation of cells at G2/M compared to control cells (HepG2 cells [9]): 3.5 fold
- Cell cycle distribution %G1 (HepG2 cells [9]): 37.66% and 37.66 ± 2.16 %
- Cell cycle distribution %G2/M (HepG2 cells [9]): 34.14% and 34.14 ± 1.22 %
- Cell cycle distribution %S (HepG2 cells [9]): 26.96% and 26.96 ± 1.55%
- Cell cycle distribution %Sub-G1 (HepG2 cells [9]): 1.24% and 1.24 ± 0.17%
- Increase of BAX/Bcl-2 ratio compared to control cells (BAX/Bcl-2 ratio): 5 fold
- Protein expression (normalised to β-actin), BAX/Bcl-2 ratio (BAX/Bcl-2 ratio; 24 h, control = 1.00): 5.03 ± 0.36

Structure (SMILES): Cc1nc2ccccc2n(CC(=O)Nc2ccc(C(=O)Nc3ccc(Cl)cn3)cc2)c1=O [Compound 27f, N-(5-Chloropyridin-2-yl)-4-(2-(3-methyl-2-oxoquinoxalin-1(2H)-yl)acetamido)-benzamide]
- IC50 (HepG2 [4]): 19.7 µM
- melting point: > 300 °C
- IC50 (human VEGFR-2 [6]): 0.0107 µM
- IC50 (MCF-7 [7]): 22.7 µM

Structure (SMILES): CNC(=O)c1cc(Oc2ccc(NC(=O)Nc3ccc(Cl)c(C(F)(F)F)c3)cc2)ccn1 [Sorafenib, reference compound]
- IC50 (HepG2 [4]): 2.17 µM
- Cytotoxic activity against cancer HepG2 cell line more than against normal hepatic cells (primary rat hepatocytes): 8 fold
- IC50 [5]: 17.3 µM

The next lines start with results.

- melting point: 231 to 233 °C
- IC50 (human VEGFR-2 [6]): 0.0298 µM
Structure (SMILES): Cc1nc2ccccc2nc1SCC(=O)Nc1ccc(C(=O)NC(C)(C)C)cc1 [Compound 30a, N-(tert-Butyl)-4-(2-((3-methylquinoxalin-2-yl)thio)acetamido)benzamide]
- IC50 (HepG2 [4]): 43.7 µM
- IC50 (MCF-7 [7]): 61.9 µM
- Activity against the MCF-7 cell line (in words) (MCF-7 [7]; MCF-7): inactive

- melting point: 235 to 237 °C
- IC50 (human VEGFR-2 [6]): 0.0138 µM
Structure (SMILES): Cc1nc2ccccc2nc1SCC(=O)Nc1ccc(C(=O)NCc2ccccc2)cc1 [Compound 30c, N-benzyl-4-(2-((3-methylquinoxalin-2-yl)thio)acetamido)benzamide]
- IC50 (HepG2 [4]): 34.1 µM
- IC50 (MCF-7 [7]): 41.9 µM

- melting point: 220 to 222 °C
- IC50 (human VEGFR-2 [6]): 0.0157 µM
Structure (SMILES): Cc1nc2ccccc2nc1SCC(=O)Nc1ccc(C(=O)NCCc2ccccc2)cc1 [Compound 30d, 4-(2-((3-Methylquinoxalin-2-yl)thio)acetamido)-N-phenethylbenzamide]
- IC50 (HepG2 [4]): 32.4 µM
- IC50 (MCF-7 [7]): 42.7 µM

- IC50 (human VEGFR-2 [6]): 0.0049 µM
Structure (SMILES): Cc1ccccc1NC(=O)c1ccc(NC(=O)CSc2nc3ccccc3nc2C)cc1 [Compound 30f, 4-(2-((3-Methylquinoxalin-2-yl)thio)acetamido)-N-(o-tolyl)benzamide]
- IC50 (HepG2 [4]): 10.7 µM
- Cytotoxic activity against cancer HepG2 cell line more than against normal hepatic cells (primary rat hepatocytes): 1.5 fold
- IC50 [5]: 15.7 µM
- IC50 (MCF-7 [7]): 18.1 µM

- melting point: 200 to 202 °C
- IC50 (human VEGFR-2 [6]): 0.0118 µM
Structure (SMILES): Cc1nc2ccccc2nc1SCC(=O)Nc1ccc(C(=O)Nc2ccc([N+](=O)[O-])cc2)cc1 [Compound 30h, 4-(2-((3-Methylquinoxalin-2-yl)thio)acetamido)-N-(4-nitrophenyl)benzamide]
- IC50 (HepG2 [4]): 17.7 µM
- IC50 (MCF-7 [7]): 21.3 µM

- melting point: 196 to 198 °C
- IC50 (human VEGFR-2 [6]): 0.0051 µM
Structure (SMILES): Cc1nc2ccccc2nc1SCC(=O)Nc1ccc(C(=O)NNC(=O)c2ccc([N+](=O)[O-])cc2)cc1 [Compound 31b, 2-((3-Methylquinoxalin-2-yl)thio)-N-(4-(2-(4-nitrobenzoyl)hydrazine-1-carbonyl)phenyl) acetamide]
- IC50 (HepG2 [4]): 13.7 µM
- IC50 (MCF-7 [7]): 19.2 µM
